Assay results: doi:10.1101/2024.08.25.609621 (bioRxiv, 2024)
“And” between values parts separate entries of the source, which are not always exact repeats. Identical values can stand only once. Like-named read-outs stand apart in the source and are kept apart here.

Legend:
[1] = biological target: SARS-CoV-2 NSP3 macrodomain (Mac1) (Severe acute respiratory syndrome coronavirus 2, UniProt P0DTD1); test: biochemical; type: binding; details: for SARS CoV-2 macrodomain HTRF assay: Hillslope: dose-response fit
[2] = biological target: SARS-CoV-2 NSP3 macrodomain (Mac1), P43 crystal form (Severe acute respiratory syndrome coronavirus 2, UniProt P0DTD1); type: binding; details: for 1-BDC: PanDDA background density correction; for Total number of conformations: ligand conformations modeled in Mac1 crystal structure; for X-ray crystallography: Binding site: site where the ligand is bound in the X-ray crystal structure
[3] = crystal soak 10 mM, P43 crystals
[4] = occupancy estimate from PanDDA BDC
[5] = Single dose, 200 μM, mean of three technical replicates
[6] = TRUE = crystal structure with ligand determined
[7] = crystal soak, soak concentration 10 mM, P43 crystals, TRUE = ligand-binding event identified
[8] = crystal soak, soak concentration 10 mM
[9] = crystal soak, soak concentration 10 mM, event 1
[10] = crystal soak, soak concentration 10 mM, TRUE = ligand modeled
[11] = occupancy estimate from PanDDA 1-BDC
[12] = site of Mac1 where ligand bound in crystal structure
[13] = Dose-response, SARS CoV-2 macrodomain HTRF assay, read-out: IC50
[14] = Single dose, 200 μM, mean of three technical replicates, read-out: Average % competition
[15] = preliminary screen, compound at 200 μM, mean of 3-4 technical replicates, read-out: % competition in HTRF assay
[16] = crystal soak concentration 20 mM
[17] = crystal soak concentration 20 mM, event 1
[18] = crystal soak concentration 20 mM, P43 crystals
[19] = crystal soak concentration 10 mM, event 1
[20] = crystal soak concentration 10 mM, P43 crystals
[21] = crystal soak concentration 10 mM
[22] = dose-response, read-out: SARS CoV-2 macrodomain HTRF assay: IC50

C[C@H]1CC[C@H](CO)N(c2ncnc3[nH]ccc23)C1 (racemic) [AVI-4063]
Hill slope ([1]; HTRF dose-response fit, Mac1): 1.1
SARS CoV-2 macrodomain HTRF assay: Hillslope [1]: 1.1
Occupancy difference (refined_occupancy - 2*(1-BDC)) [2]: 18
Refined ligand occupancy (%) [2]: 50%
1-BDC [2]: 0.16
Hit (PanDDA run, overall) [2, 3]: TRUE
Hit (PanDDA run, DMSO background map) ([2]; crystal soak 10 mM): TRUE
1-BDC (PanDDA run, DMSO background map) ([2]; crystal soak 10 mM, event 1): 0.21 and 0.16
Total number of conformations [2]: 1
2*(1-BDC) (%) [2, 4]: 32%
X-ray crystallography: Binding site [2]: Adenosine

C[C@@H]1CCN(c2ncnc3[nH]ccc23)[C@H](CO)C1 (racemic) [AVI-4064]
Hill slope ([1]; HTRF dose-response fit, Mac1): 1.2
SARS CoV-2 macrodomain HTRF assay: Hillslope [1]: 1.2
Occupancy difference (refined_occupancy - 2*(1-BDC)) [2]: 0
Refined ligand occupancy (%) [2]: 38%
1-BDC [2]: 0.19
Hit (PanDDA run, overall) [2, 3]: TRUE
Hit (PanDDA run, DMSO background map) ([2]; crystal soak 10 mM): TRUE
1-BDC (PanDDA run, DMSO background map) ([2]; crystal soak 10 mM, event 1): 0.19
Total number of conformations [2]: 2
2*(1-BDC) (%) [2, 4]: 38%
X-ray crystallography: Binding site [2]: Adenosine

c1ccc(-n2nnnc2CSc2nnc(NC3CC3)s2)cc1 [AVI-286]
Average % competition [1, 5]: 0%
1-BDC [2]: 0.11
X-ray crystal structure [2, 6]: TRUE
Pandda run, overall: Hit [2, 7]: TRUE
PanDDA run, DMSO background map: Hit [2, 8]: TRUE
PanDDA run, DMSO background map: Modeled [2, 8]: TRUE
PanDDA run, DMSO background map: 1-BDC [2, 9]: 0.11
Pandda run, overall: Modeled [2, 10]: TRUE
Total number of conformations [2]: 1
2*(1-BDC) (%) [2, 11]: 22%
Binding site [2, 12]: Distal

O=C(O)C(c1ccccc1)n1sc2ccccc2c1=O (centres unmarked) [AVI-288]
IC50 [1, 13]: > 1000 µM
inhibition at 200 µM [1, 14]: 21%
inhibition at 200 µM [1, 15]: 21%
Occupancy difference (refined_occupancy - 2*(1-BDC)) [2]: 0
Refined ligand occupancy (%) [2]: 74%
1-BDC [2]: 0.37
X-ray crystal structure [2, 6]: TRUE
PanDDA run, DMSO background map: Hit [2, 16]: TRUE
PanDDA run, DMSO background map: Modeled [2, 16]: TRUE
PanDDA run, DMSO background map: 1-BDC [2, 17]: 0.37
Pandda run, overall: Hit [2, 18]: TRUE
Pandda run, overall: Modeled [2, 18]: TRUE
Pandda run, overall: Modeling comment [2, 8]: Duplicate, not modeled
Pandda run, overall: Hit [2, 7]: TRUE
PanDDA run, DMSO background map: Hit [2, 8]: TRUE
PanDDA run, DMSO background map: 1-BDC [2, 9]: 0.26
Total number of conformations [2]: 1
2*(1-BDC) (%) [2, 4]: 74%
Binding site [2, 12]: Adenosine

CC(C)n1nnnc1SCc1c(C(=O)O)sc2cccc(F)c12 [AVI-291]
IC50 [1, 13]: > 1000 µM
inhibition at 200 µM [1, 14]: 41%
inhibition at 200 µM [1, 15]: 41%
Occupancy difference (refined_occupancy - 2*(1-BDC)) [2]: 0
Refined ligand occupancy (%) [2]: 68%
1-BDC [2]: 0.34
X-ray crystal structure [2, 6]: TRUE
Comment ([2]; comment on ligand modeling / Phe132 loop density): Second ligand conformation, not modeled, DMSO x2
PanDDA run, DMSO background map: Hit [2, 16]: TRUE
PanDDA run, DMSO background map: Modeled [2, 16]: TRUE
PanDDA run, DMSO background map: 1-BDC [2, 17]: 0.34
Pandda run, overall: Hit [2, 18]: TRUE
Pandda run, overall: Modeled [2, 18]: TRUE
Pandda run, overall: Modeling comment [2, 18]: Second ligand conformation, not modeled, DMSO x2
Pandda run, overall: Modeling comment [2, 8]: Duplicate, not modeled
Pandda run, overall: Hit [2, 7]: TRUE
PanDDA run, DMSO background map: Hit [2, 8]: TRUE
PanDDA run, DMSO background map: 1-BDC [2, 9]: 0.25
Total number of conformations [2]: 1
2*(1-BDC) (%) [2, 4]: 68%
Binding site [2, 12]: Adenosine

Nc1nnc(SCCn2c(=O)oc3ccccc32)s1 [AVI-296]
Average % competition [1, 5]: 7%
1-BDC [2]: 0.06
X-ray crystal structure [2, 6]: TRUE
Pandda run, overall: Hit [2, 7]: TRUE
PanDDA run, DMSO background map: Hit [2, 8]: TRUE
PanDDA run, DMSO background map: Modeled [2, 8]: TRUE
PanDDA run, DMSO background map: 1-BDC [2, 9]: 0.06
Pandda run, overall: Modeled [2, 10]: TRUE
Total number of conformations [2]: 1
2*(1-BDC) (%) [2, 11]: 12%
Binding site [2, 12]: Distal

CCn1c(C)nnc1Sc1cnc2ccccc2n1 [AVI-297]
Average % competition [1, 5]: 0%
Pandda run, overall: Modeling comment [2, 8]: Only density for quinoxaline, not modeled
Pandda run, overall: Hit [2, 7]: TRUE
PanDDA run, DMSO background map: Hit [2, 8]: TRUE
PanDDA run, DMSO background map: 1-BDC [2, 9]: 0.05

COc1ccc(NC(=O)NC2CCCC2)cc1-n1nnnc1C [AVI-311]
Average % competition [1, 5]: 0%
PanDDA run, DMSO background map: 1-BDC [2, 19]: 0.09
Pandda run, overall: Hit [2, 20]: TRUE
Pandda run, overall: Modeling comment [2, 20]: Weak density, not modeled
PanDDA run, DMSO background map: Hit [2, 21]: TRUE
PanDDA run, DMSO background map: Hit [2, 16]: TRUE
PanDDA run, DMSO background map: 1-BDC [2, 17]: 0.12
Pandda run, overall: Hit [2, 18]: TRUE
Pandda run, overall: Modeling comment [2, 18]: Weak density, not modeled

OCC(Cc1ccccc1)Nc1ncnc2[nH]ccc12 (centres unmarked) [AVI-313]
Hill slope ([1]; Dose-response, SARS CoV-2 macrodomain HTRF assay): 1.2
Hill slope ([1]; HTRF dose-response fit, Mac1): 1.2
inhibition at 200 µM [1, 14]: 75%
inhibition at 200 µM [1, 15]: 75%
1-BDC [2]: 0.18
X-ray crystal structure [2, 6]: TRUE
PanDDA run, DMSO background map: 1-BDC [2, 19]: 0.18
Pandda run, overall: Hit [2, 20]: TRUE
Pandda run, overall: Modeled [2, 20]: TRUE
PanDDA run, DMSO background map: Hit [2, 21]: TRUE
PanDDA run, DMSO background map: Modeled [2, 21]: TRUE
PanDDA run, DMSO background map: Hit [2, 16]: TRUE
PanDDA run, DMSO background map: 1-BDC [2, 17]: 0.25
Pandda run, overall: Hit [2, 18]: TRUE
Pandda run, overall: Modeling comment [2, 18]: Duplicate, not modeled
Total number of conformations [2]: 2
2*(1-BDC) (%) [2, 11]: 36%
Binding site [2, 12]: Adenosine

Cc1nn(C)cc1C1CCC(CO)N1c1ncnc2[nH]ccc12 (centres unmarked) [AVI-3733]
1-BDC [2]: 0.1
Pandda run, overall: Hit [2, 3]: TRUE
Pandda run, overall: Modeled [2, 3]: TRUE
PanDDA run, DMSO background map: 1-BDC ([2]; crystal soak 10 mM): 0.1
PanDDA run, DMSO background map: Hit ([2]; crystal soak 10 mM): TRUE
Total number of conformations [2]: 1
2*(1-BDC) (%) [2, 11]: 20%
X-ray crystallography: Binding site [2]: Adenosine

OCC1CCC2(CCOCC2)CN1c1ncnc2[nH]ccc12 (centres unmarked) [AVI-4065]
Hill slope ([1]; HTRF dose-response fit, Mac1): 1.2
SARS CoV-2 macrodomain HTRF assay: Hillslope [1]: 1.2

Cc1c[nH]c2ncnc(NCC3(O)CC[S+]([O-])CC3)c12 (centres unmarked) [AVI-4198]
IC50 [1, 22]: > 1000 µM

Cc1c[nH]c2ncnc(NCC3(O)CCS(=O)(=O)CC3)c12 [AVI-4199]
IC50 [1, 22]: > 1000 µM

OC1(CNc2ncnc3[nH]ccc23)CCC2(CC1)OCCO2 [AVI-4315]
Hill slope ([1]; HTRF dose-response fit, Mac1): 1.2
SARS CoV-2 macrodomain HTRF assay: Hillslope [1]: 1.2

O=S1(=O)CCC(O)(CNc2ncnc3[nH]ccc23)CC1 [AVI-4316]
IC50 [1, 22]: > 1000 µM

CC(Nc1ncnc2[nH]ccc12)C1(O)CCCCC1 (centres unmarked) [AVI-4321]
Hill slope ([1]; HTRF dose-response fit, Mac1): 1.2
SARS CoV-2 macrodomain HTRF assay: Hillslope [1]: 1.2

CC(O)C(C)Nc1ncnc2[nH]ccc12 (centres unmarked) [AVI-5158]
Occupancy difference (refined_occupancy - 2*(1-BDC)) [2]: 0
Refined ligand occupancy (%) [2]: 34%
PanDDA run, DMSO background map: 1-BDC ([2]; event 1): 0.17
1-BDC [2]: 0.17
X-ray crystal structure ([2]; X-ray crystal structure determined (TRUE)): TRUE
Total number of conformations [2]: 2
2*(1-BDC) (%) [2, 4]: 34%
Binding site ([2]; site of ligand in X-ray crystal structure): Adenosine

CC(C)C1CCCN1c1ncnc2[nH]ccc12 (centres unmarked) [AVI-5216]
Occupancy difference (refined_occupancy - 2*(1-BDC)) [2]: 14
Refined ligand occupancy (%) [2]: 40%
PanDDA run, DMSO background map: 1-BDC ([2]; event 1): 0.13
1-BDC [2]: 0.13
Total number of conformations [2]: 1
2*(1-BDC) (%) [2, 4]: 26%
X-ray crystallography: Binding site [2]: Adenosine

FC(F)(F)C1CCCN1c1ncnc2[nH]ccc12 (centres unmarked) [AVI-5996]
IC50 [1, 22]: > 1000 µM
